Patent US9814709B2, “Bruton's tyrosine kinase inhibitor” (HEFEI INSTITUTES OF PHYSICAL SCIENCE, CHINESE ACADEMY OF …, priority 2014, dated 2017)

Assays:
B-lymphoma cell Ramos = assay: Cancer cell growth, Cell Titer-Glo; format: cell-based; conditions: Homo sapiens, 72 hrs, read-out: Half inhibitory concentration IC50
Excerpt: (§1) We further assessed the selectivity of Compound 1 to inhibit the proliferation of cancer cells, by testing the effect of Btk inhibitor on the growth of cancer cells. In the example, we used B-lymphoma cell Ramos, cervical cancer cells HeLa, prostate cancer cells DU145, RV-1 and C4-2, colon cancer cells HCT116, blood cancer cells K562, B-cell lymphoma cells U2932, diffuse large B-cell lymphoma cells OCI-LY10, diffuse histiocytic lymphoma cells SU-DHL-2, diffuse large B-cell lymphoma cells TMD8, human non-small cell lung cancer cells H1975 (expressing EGFR L858R/T790M double mutant gene), human lung adenocarcinoma cells A549 (expressing wild-type EGFR gene), human non-small cell lung cancer cells H460 (expressing wild-type EGFR gene), mantel cell lymphoma (MCL) cells Z-138, EB virus infected human peripheral lymphocyte cells JVM-2, MCL cells REC-1, leukemia cells AML-3, acute promyelocytic leukemia cell line NB-4(Lu+), MDS-RAEB (myelodysplastic syndrome-excessive blasts) cell line SKM-1 human leukemia cell Nomo-1, human B-cell leukemia cell line NALM6, human leukocyte leukemia cells HEL, human T-cell lymphoma cells PF-382, acute myelocytic leukemia (AML) cell line MOLM14, AML cell line MOLM13, human Burkitt's lymphoma cells Namalwa, mouse pro-B cells BaF3, all of where were purchased from ATCC. Also used were mouse TEL-EGFR-BaF3 (stably expressing TEL-EGFR activated kinase), mouse TEL-EGFR/T790-BaF3 cells (stably expressing TEL-EGFR-T790M activated mutant kinase), mouse TEL-EGFR/L858R-BaF3 cells (stably expressing TEL-EGFR-L858R activated mutant kinase), mouse TEL-EGFR/T790/L858R-BaF3 (stably expressing TEL-EGFR-T790M/L858R activated mutant kinase), mouse TEL-BMX-BaF3 cells (stably expressing TEL-BMX activated kinase), mouse TEL-JAK1-BaF3 cells (stably expressing TEL-JAK1 activated kinase), mouse TEL-JAK2-BaF3 cells (stably expressing TEL-JAK2 activated kinase), mouse TEL-JAK3-BaF3 cells (stably expressing TEL-JAK3 activated kinase), where were all established by our laboratory via the following method: the kinase domain sequences of human EGFR, BMX, JAK1, JAK2, JAK3 were amplified respectively by PCR, and these kinase were inserted into the MSCV-Puro vectors with N-terminal TEL segment (Clontech); if there was a mutation, the mutation of the corresponding site was conducted by Site-Directed Mutagenesis kit (Stratagene); the resultants were stably transfected into mouse BaF3 cells by the means of retrovirus, and the IL-3 growth factors were removed, and eventually the EGFR, BMX, JAK1, JAK2, JAK3-transferred protein dependent cell lines were obtained.
(§2) In the example, different concentrations (0.000508 μM, 0.00152 μM, 0.00457 μM, 0.0137 μM, 0.0411 μM, 0.123 μM, 0.370 μM, 1.11 μM, 3.33 μM, 10 μM) of Compound 1 and Compound 19 were added into above cells, and were incubated for 72 hrs. The number of viable cells was determined by quantitating ATP in viable cells using Cell Titer-Glo® (Promega, U.S.) chemiluminescence cell viability assay kit.

blood cancer cells K562 = assay: Cancer cell growth, Cell Titer-Glo; format: cell-based; conditions: Homo sapiens; K562, 72 hrs; read-out: Half inhibitory concentration IC50
Excerpt: as §1, §2

[1] = tested on: EB virus infected human peripheral lymphocyte cells JVM-2; assay: Cancer cell growth, Cell Titer-Glo; format: cell-based; conditions: JVM-2, 72 hrs, read-out: Half inhibitory concentration IC50
Excerpt: as §1, §2

[2] = tested on: diffuse large B-cell lymphoma cells TMD8; assay: Cancer cell growth, Cell Titer-Glo; format: cell-based; conditions: Homo sapiens; TMD8, 72 hrs; read-out: Half inhibitory concentration IC50
Excerpt: as §1, §2

MCL cells REC-1 = assay: Cancer cell growth, Cell Titer-Glo; format: cell-based; conditions: Homo sapiens, Rec1; REC-1, 72 hrs; read-out: Half inhibitory concentration IC50
Excerpt: as §1, §2

[3] = tested on: human T-cell lymphoma cells PF-382; assay: Cancer cell growth, Cell Titer-Glo; format: cell-based; conditions: PF-382, 72 hrs, read-out: Half inhibitory concentration IC50
Excerpt: as §1, §2

[4] = tested on: human Burkitt's lymphoma cells Namalwa; assay: Cancer cell growth, Cell Titer-Glo; format: cell-based; conditions: Burkitts lymphoma cell, 72 hrs, read-out: Half inhibitory concentration IC50
Excerpt: as §1, §2

[5] = tested on: human non-small cell lung cancer cells H1975 (expressing EGFR L858R/T790M double mutant gene); assay: Cancer cell growth, Cell Titer-Glo; format: cell-based; conditions: NCI-H1975, H1975, 72 hrs, read-out: Half inhibitory concentration IC50
Excerpt: as §1, §2

MDS-RAEB cell line SKM-1 = assay: Cancer cell growth, Cell Titer-Glo; format: cell-based; conditions: Homo sapiens; SKM-1, 72 hrs; read-out: Half inhibitory concentration IC50
Excerpt: as §1, §2

[6] = tested on: prostate cancer cells C4-2; assay: Cancer cell growth, Cell Titer-Glo; format: cell-based; conditions: C4-2, 72 hrs; read-out: Half inhibitory concentration IC50
Excerpt: as §1, §2

[7] = tested on: colon cancer cells HCT116; assay: Cancer cell growth, Cell Titer-Glo; format: cell-based; conditions: Homo sapiens, HCT-116; HCT116, 72 hrs; read-out: Half inhibitory concentration IC50
Excerpt: as §1, §2

[8] = tested on: prostate cancer cells RV-1; assay: Cancer cell growth, Cell Titer-Glo; format: cell-based; conditions: RV-1, 72 hrs; read-out: Half inhibitory concentration IC50
Excerpt: as §1, §2

[9] = tested on: B-cell lymphoma cells U2932; assay: Cancer cell growth, Cell Titer-Glo; format: cell-based; conditions: Homo sapiens; U2932, 72 hrs; read-out: Half inhibitory concentration IC50
Excerpt: as §1, §2

BTK C481S protein = molecular target: T1, BTK C481S protein (Homo sapiens, UniProt Q06187, C481S); assay: Btk acellular kinase assay, BTK C481S mutant protein purified from transfected 293T cells; format: biochemical; conditions: 3-1000 nM, 100 μM ATP
T1 construct: made in house; host or cells: 293T cells
T1 sequence (Q06187 whole entry C481S): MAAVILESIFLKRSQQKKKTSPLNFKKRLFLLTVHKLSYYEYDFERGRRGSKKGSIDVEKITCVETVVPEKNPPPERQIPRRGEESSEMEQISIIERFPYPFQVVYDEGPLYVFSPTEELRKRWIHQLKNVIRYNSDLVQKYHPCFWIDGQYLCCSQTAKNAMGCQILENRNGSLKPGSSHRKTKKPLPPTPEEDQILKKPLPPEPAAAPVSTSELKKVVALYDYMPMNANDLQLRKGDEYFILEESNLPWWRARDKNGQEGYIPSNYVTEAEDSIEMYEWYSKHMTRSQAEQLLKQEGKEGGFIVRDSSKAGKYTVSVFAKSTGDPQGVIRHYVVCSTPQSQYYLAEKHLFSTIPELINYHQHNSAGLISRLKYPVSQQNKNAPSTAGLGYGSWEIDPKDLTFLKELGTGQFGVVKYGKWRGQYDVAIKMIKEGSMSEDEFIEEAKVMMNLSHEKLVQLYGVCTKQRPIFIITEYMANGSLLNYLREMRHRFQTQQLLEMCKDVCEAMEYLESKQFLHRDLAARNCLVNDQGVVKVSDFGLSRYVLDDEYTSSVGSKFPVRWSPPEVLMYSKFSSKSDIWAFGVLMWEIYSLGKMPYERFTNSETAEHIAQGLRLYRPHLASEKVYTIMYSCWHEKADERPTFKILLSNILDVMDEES
Method: The BTK wild-type plasmid and the BTK mutant plasmid (C481S) were respectively transfected into 293T cells (purchased from ATCC), and the resultant cells were marked as BTK WT 293T cells and BTK C481S 293T cells, respectively. After cell culture for 2 days, the cells were harvested and purified to give BTK WT and BTK C481S proteins. The compounds of formula (I) were added to the BTK WT and BTK C481S proteins at different concentrations of 3 nM, 10 nM, 30 nM, 100 nM, 300 nM and 1000 nM, respectively, and reacted at room temperature for 30 min, followed by the addition of 100 μM ATP at 37° C. and reacting for 20 min.

IC50 (B-lymphoma cell Ramos)	IC50 (blood cancer cells K562)	IC50 [1]	IC50 [2]	IC50 (MCL cells REC-1)	IC50 [3]	IC50 [4]	IC50 [5]	IC50 (MDS-RAEB cell line SKM-1)	IC50 [6]	IC50 [7]	IC50 [8]	IC50 [9]	inhibitory effect on BTK C481S (BTK C481S protein)	SMILES
> 10 µM	> 10 µM	3.4 µM	3.43 µM	1.6 µM	3.49 µM	4.5 µM	3.81 µM	1.5 µM	> 10 µM	> 10 µM	> 10 µM	1.15 µM	no inhibition	C=CC(=O)Nc1cc(-n2c(=O)ccc3cnc4ccc(-n5cccn5)cc4c32)ccc1C [Compound 1, N-(2-methyl-5-(2-oxo-9-(1H-pyrazol-1-yl)benzo[H][1,6]naphthyridin-1(2H)-yl)phenyl)acrylamide]
> 10 µM	> 10 µM	> 10 µM	> 10 µM	> 10 µM	> 10 µM	> 10 µM	> 10 µM	> 10 µM	> 10 µM	> 10 µM	> 10 µM	> 10 µM	no inhibitory effect	CCC(=O)Nc1cc(-n2c(=O)ccc3cnc4ccc(-n5cccn5)cc4c32)ccc1C [Compound 19, N-(2-methyl-5-(2-oxo-9-(1H-pyrazol-1-yl)benzo[H][1,6]naphthyridin-1(2H)-yl)phenyl) propionamide]
